Data taken from patent publication US8299252B2, “Pyrazolopyridine and pyrrolopyridine multikinase inhibitors” (Chugai Seiyaku Kabushiki Kaisha, priority 2005, dated 2012).
Values after ≈ are worked out from the molar mass of the structure shown.

Columns and labels:
[1] = system: human umbilical vein endothelial cells (HUVEC), VEGF-dependent proliferation; assay: VEGF-dependent HUVEC proliferation inhibition assay; assay type: cell-based; conditions: read-out: 50% proliferation inhibitory concentration (IC50 value) HUVEC (VEGF-dependent), 20 ng/mL of VEGF, 72 hours, WST-1
Protocol: (§1) The compounds according to the present invention were measured for cancer cell proliferation inhibitory activity and human umbilical vein endothelial cell (HUVEC) proliferation inhibitory activity.
(§2) Test compounds were serially diluted with dimethyl sulfoxide and then diluted 50 times with Ca^2+- and Mg^2+-free phosphate-buffered saline, and 20 μL of each of the resulting solution was dispensed into a 96-well plate. […] Each cell suspension contains approximately 3000 cells/180 μL. These cell suspensions were dispensed to the plate containing the test compounds at 180 μL/well and incubated in a 5% carbon dioxide gas incubator at 37° C. for 72 hours. 20 μL of WST-8 (HCT116, Dojin) or WST-1 (HUVEC, Roche Diagnostics) was added to each well, and absorbance at 450 nm (reference wavelength: 650 nm) was measured.

[2] = Solubility in fasted state simulated intestinal fluid; assay type: physicochemical; conditions: pH 6.5, fassif, kinetic from dmso stock, fasted state simulated intestinal fluid (pH6.5), 37° C.
Protocol: 2 μL of each dimethyl sulfoxide solutions containing test compounds were dispensed into wells of a 96-well plate, and 200 μL of fasted state simulated intestinal fluid (pH6.5) was added to each well. The plate was shaken at 37° C. for 20 hours. The solution was filtered through a membrane filter, and 101 μL of the filtrate was transferred to a UV plate, followed by addition of 100 μL of a solution mixture of ethanol:water=2:1 thereto. Separately, as a standard, 101 μL of a solution prepared by 2 μL of a dimethyl sulfoxide solution, 4 μL of dimethyl sulfoxide, 400 μL of ethanol, and 200 μL of water was transferred to a UV plate, and 100 μL of fasted state simulated intestinal fluid (pH6.5) was added thereto. The solubility was calculated by the following expression: Solubility=[(absorbance of test solution)−blank]/[(absorbance of standard solution)−blank]×165 μM (165 μM is the concentration of the standard solution) Composition of the fasted state simulated intestinal fluid (pH6.5)
The composition was prepared in compliance with the description in E. Galia, et al., Pharm. Res. 1998, 698.
Taurocholic acid (161 mg), L-α-phosphatidylcholine (59 mg), potassium dihydrogen phosphate (0.39 g), and potassium chloride (0.77 g) were added to about 90 mL of water. The resulting solution was adjusted to a pH of 6.5 with a sodium hydroxide aqueous solution and then diluted to a volume of 100 mL with water. The solution was filtered through a membrane filter.

[3] = system: tube formation of human-derived vascular endothelial cells (HUVEC); assay: Tube formation inhibition test (angiogenesis assay kit, KURABO); assay type: cell-based; conditions: 264 h, final concentration 6.4 nM, 11 days, read-out: Tube formation inhibition ratio (%)
Protocol: The formed tubes were stained with a tube staining kit CD31 (KURABO). The stain image of each well was taken under a microscope, stored in an image file, and measured for the tube formation area using angiogenesis quantitative analysis software of KURABO. The inhibition ratio % of each test compound added to the well was calculated, provided that the ratio of the reference was 100%.

[4] = system: choroidal neovascularization; assay: Laser coagulation-induced murine choroidal neovascularization model; assay type: in vivo, C57BL6J mice; conditions: for Average FA score: once a day for three days
Protocol: Laser coagulation was performed on two- to three-month-old C57BL6J mice (ten mice per group) by using a 408 nm semiconductor laser (DC-3000, Nidek). Both eyes were each irradiated at three positions with a spot size of 170 μm, an exposure time of 0.02 sec, and an output of 200 mW. The drug was orally administered once a day for three days beginning on the day of the laser coagulation. On the next day of the last administration, the mice were intravenously injected with 7 mg/kg of fluorescein. Five minutes after the injection, three fluorescent fundus images of each eye were taken (TRC-501X, Topcon) and stored in a CCD camera having 640×480 pixels as an image file. The total pixel brightness (0 to 1) in regions where fluorescein leakage was detected was used as an index (FA score) of choroidal neovascularization activity. The FA score was calculated by defining reference values such that the pixel brightness in a capillary region of a non-coagulated site is 0 and the pixel brightness on a main branch of the retinal blood vessel is 1.

[5] = Pharmacokinetics test, oral administration; assay type: in vivo; conditions: female, Balb/c nude, mouse, 100 mg/kg, plasma
Protocol: The compound according to the present invention and known Compound A were measured for pharmacokinetics. Each of the test compounds was orally administered to each female Balb/c nude mouse at a dose of 100 mg/kg, and concentrations of the compound in plasma 0.5, 2, 7, and 24 hours after the administration were quantitatively measured by LC-MS-MS.

[6] = system: human umbilical vein endothelial cells (HUVEC), VEGF-independent proliferation; assay: VEGF-independent HUVEC proliferation inhibition assay; assay type: cell-based; conditions: read-out: 50% proliferation inhibitory concentration (IC50 value) HUVEC (VEGF-independent), vascular endothelial cell growth-promoting agent and heparin, 72 hours, WST-1
Protocol: as §1, §2

[7] = system: human colon cancer cell line HCT116 cells; assay: Cell proliferation inhibitory activity, HCT116; assay type: cell-based; conditions: Homo sapiens, HCT-116, read-out: 50% proliferation inhibitory concentration (IC50 value) HCT116; HCT116, 72 hours, WST-8
Protocol: as §1, §2

[8] = system: human colon cancer cell line HCT116 cells; assay: Antitumor test, HCT116 transplanted subcutaneously in nude mice; assay type: in vivo, female Balb/c nude mouse; conditions: 100 mg/kg oral, once a day for 12 days
Protocol: A cell suspension of human colon cancer cell line HCT116 cells was prepared using Hanks's solution, and 5.0×10^6 cells thereof were transplanted subcutaneously into the flank of each female Balb/c nude mouse. Oral administration of the test compound (once a day for 12 days) was started when the transplanted tumor volume reached 200 to 250 mm^3. The tumor volume was calculated by the expression: 0.5×(minor axis)^2×(major axis). The tumor growth inhibition ratio of tumor growth of the test compound to tumor growth of the reference group was determined.

solubility at 20 h [2]: 15 µg/mL (≈ 30.6 µM) | AUC [5]: 247 µg·h/mL | Cmax [5]: 22700 ng/mL | IC50 [7]: 2600 nM
Compound: O=C(Nc1ccc(Oc2ccnc3[nH]ccc23)cc1)Nc1ccc(CCC(F)F)c(C(F)(F)F)c1 [Compound 12, 1-[4-(3,3-Difluoropropyl)-3-(trifluoromethyl)phenyl]-3-[4-(1H-pyrrolo[2,3-b]pyridin-4-yloxy)phenyl]urea]
IC50 [1]: 5.1 nM | inhibition at 0.0064 µM [3]: 81% | inhibition of the angiogenesis (in words) ([4]; 50 mg/kg): significantly inhibited | Average FA score ([4]; 50 mg/kg oral): 6.910 | inhibition of the angiogenesis (in words) ([4]; 100 mg/kg): significantly inhibited | Average FA score ([4]; 100 mg/kg oral): 6.833 | IC50 [6]: 270 nM | Tumor growth inhibition ratio (%) ([8]; last administration day): 100% | Decrease ratio in body weight (%) ([8]; maximum decrease): 6.5%
